Test results as given in the supplement of paper PMC11061612.

What was measured:
Assay in all cases: Bliss excess, mean over the matrix (fraction); higher = more synergy
[1] = system: NCI-H64 (Small Cell Lung Carcinoma)
Summary of the method: (§1)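 After 24 hours at 37°C and 5% CO2 in 1536-well plates, cells in DMEM/F12 or RPMI plus 10% FBS received two-drug dose matrices for 72 hours. Viability came from CellTiter-Glo 2.0 luminescence and was scaled as inhibition, anchored at 0 by vehicle wells and at 1 by blank wells. Combination Emax is taken as the second-highest inhibition in the matrix, and Bliss excess as the observed combination effect less EA + EB − EA·EB, with EA and EB the single-agent effects.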

[2] = system: CCK-81 (Colorectal Carcinoma)
Summary of the method: as §1

LN-405 (Glioblastoma) = system: LN-405 (Glioblastoma)
Summary of the method: as §1

ARH-77 (Non-Cancerous) = system: ARH-77 (Non-Cancerous)
Summary of the method: as §1

[3] = system: VCaP (Prostate Carcinoma)
Summary of the method: as §1

[4] = system: ECC10 (Gastric Carcinoma)
Summary of the method: as §1

Row | SMILES | Bliss excess [1] | Bliss excess [2] | Bliss excess (LN-405 (Glioblastoma)) | Bliss excess (ARH-77 (Non-Cancerous)) | Bliss excess [3] | Bliss excess [4]
1 | CN(C)CCCOc1ccc(-c2ccc3ncc4c(c3c2)n(C2CCOCC2)c(=O)n4C)cn1 [AZD0156] + C=CCn1c(=O)c2cnc(Nc3ccc(N4CCN(C)CC4)cc3)nc2n1-c1cccc(C(C)(C)O)n1 [AZD1775] (first compound max 1 µM, partner max 1 µM) | -0.0931 | -0.0039 | -0.0478 | -0.0207 | -0.0751 | -0.0379
2 | CN(C)CCCOc1ccc(-c2ccc3ncc4c(c3c2)n(C2CCOCC2)c(=O)n4C)cn1 [AZD0156] + CCN(CCO)CCCOc1ccc2c(Nc3cc(CC(=O)Nc4cccc(F)c4)[nH]n3)ncnc2c1 [AZD2811] (first compound max 1 µM, 7x7, partner max 1 µM) | 0.0802 | -0.0302 | -0.0356 | 0.0216 | -0.0484 | -0.0028
3 | CN(C)CCCOc1ccc(-c2ccc3ncc4c(c3c2)n(C2CCOCC2)c(=O)n4C)cn1 [AZD0156] + C[C@@H]1COCCN1C2=NC(=NC(=C2)C3(CC3)[S@](=N)(=O)C)C4=C5C=CNC5=NC=C4 [AZD6738] (first compound max 1 µM, 7x7, partner max 10 µM) | -0.0368 | -0.0161 | -0.0236 | 0.0673 | -0.037 | -0.0104
4 | C=CCn1c(=O)c2cnc(Nc3ccc(N4CCN(C)CC4)cc3)nc2n1-c1cccc(C(C)(C)O)n1 [AZD1775] + C[C@@H]1COCCN1C2=NC(=NC(=C2)C3(CC3)[S@](=N)(=O)C)C4=C5C=CNC5=NC=C4 [AZD6738] (first compound max 1 µM, partner max 10 µM) | 0.0015 | -0.0359 | -0.0025 | 0.0324 | 0.006 | 0.0364
5 | C=CCn1c(=O)c2cnc(Nc3ccc(N4CCN(C)CC4)cc3)nc2n1-c1cccc(C(C)(C)O)n1 [AZD1775] + O=C(c1cc(Cc2n[nH]c(=O)c3ccccc23)ccc1F)N1CCN(C(=O)C2CC2)CC1 [Olaparib] (first compound max 1 µM, partner max 10 µM) | -0.0547 | 0.042 | -0.0583 | -0.004 | -0.0494 | -0.019
6 | CCN(CCO)CCCOc1ccc2c(Nc3cc(CC(=O)Nc4cccc(F)c4)[nH]n3)ncnc2c1 [AZD2811] + C=CCn1c(=O)c2cnc(Nc3ccc(N4CCN(C)CC4)cc3)nc2n1-c1cccc(C(C)(C)O)n1 [AZD1775] (first compound max 1 µM, partner max 1 µM) | -0.0413 | -0.037 | -0.0312 | 0.024 | -0.0369 | -0.0021
7 | CCN(CCO)CCCOc1ccc2c(Nc3cc(CC(=O)Nc4cccc(F)c4)[nH]n3)ncnc2c1 [AZD2811] + C[C@@H]1COCCN1C2=NC(=NC(=C2)C3(CC3)[S@](=N)(=O)C)C4=C5C=CNC5=NC=C4 [AZD6738] (first compound max 1 µM, 7x7, partner max 10 µM) | -0.075 | -0.0388 | -0.0386 | 0.0254 | -0.0864 | -0.0454
8 | CCN(CCO)CCCOc1ccc2c(Nc3cc(CC(=O)Nc4cccc(F)c4)[nH]n3)ncnc2c1 [AZD2811] + O=C(c1cc(Cc2n[nH]c(=O)c3ccccc23)ccc1F)N1CCN(C(=O)C2CC2)CC1 [Olaparib] (first compound max 1 µM, 7x7, partner max 10 µM) | 0.0589 | 0.032 | -0.0224 | 0.0114 | 0.0014 | -0.107
9 | CN(CCO)CC[C@H](CSc1ccccc1)Nc1ccc(S(=O)(=O)NC(=O)c2ccc(N3CCC([C@@H](O)c4ccccc4-c4ccc(Cl)cc4)CC3)cc2)cc1S(=O)(=O)C(F)(F)F [AZD4320] + C1CN(CCC1(C(=O)N[C@@H](CCO)C2=CC=C(C=C2)Cl)N)C3=NC=NC4=C3C=CN4 [Capivasertib] (first compound max 1 µM, 7x7, partner max 3 µM) | -0.028 | -0.0258 | -0.0454 | 0.0277 | 0.0013 | -0.0312
10 | CN(CCO)CC[C@H](CSc1ccccc1)Nc1ccc(S(=O)(=O)NC(=O)c2ccc(N3CCC([C@@H](O)c4ccccc4-c4ccc(Cl)cc4)CC3)cc2)cc1S(=O)(=O)C(F)(F)F [AZD4320] + C=CCn1c(=O)c2cnc(Nc3ccc(N4CCN(C)CC4)cc3)nc2n1-c1cccc(C(C)(C)O)n1 [AZD1775] (first compound max 1 µM, partner max 1 µM) | 0.0886 | -0.0198 | 0.0173 | -0.0449 | 0.0072 | 0.136
11 | CN(CCO)CC[C@H](CSc1ccccc1)Nc1ccc(S(=O)(=O)NC(=O)c2ccc(N3CCC([C@@H](O)c4ccccc4-c4ccc(Cl)cc4)CC3)cc2)cc1S(=O)(=O)C(F)(F)F [AZD4320] + CCN(CCO)CCCOc1ccc2c(Nc3cc(CC(=O)Nc4cccc(F)c4)[nH]n3)ncnc2c1 [AZD2811] (first compound max 1 µM, 7x7, partner max 1 µM) | 0.158 | -0.0345 | 0.014 | 0.0992 | 0.0003 | 0.0193
12 | CN(CCO)CC[C@H](CSc1ccccc1)Nc1ccc(S(=O)(=O)NC(=O)c2ccc(N3CCC([C@@H](O)c4ccccc4-c4ccc(Cl)cc4)CC3)cc2)cc1S(=O)(=O)C(F)(F)F [AZD4320] + CN(C)CCCOc1ccc(-c2ccc3ncc4c(c3c2)n(C2CCOCC2)c(=O)n4C)cn1 [AZD0156] (first compound max 1 µM, 7x7, partner max 1 µM) | 0.0003 | -0.0009 | 0.0093 | -0.0283 | -0.0185 | 0.0096
13 | CN(CCO)CC[C@H](CSc1ccccc1)Nc1ccc(S(=O)(=O)NC(=O)c2ccc(N3CCC([C@@H](O)c4ccccc4-c4ccc(Cl)cc4)CC3)cc2)cc1S(=O)(=O)C(F)(F)F [AZD4320] + C[C@@H]1COCCN1C2=NC(=NC(=C2)C3(CC3)[S@](=N)(=O)C)C4=C5C=CNC5=NC=C4 [AZD6738] (first compound max 1 µM, 7x7, partner max 10 µM) | -0.0404 | -0.0546 | 0.0063 | -0.0049 | -0.0287 | -0.0256
14 | CN(CCO)CC[C@H](CSc1ccccc1)Nc1ccc(S(=O)(=O)NC(=O)c2ccc(N3CCC([C@@H](O)c4ccccc4-c4ccc(Cl)cc4)CC3)cc2)cc1S(=O)(=O)C(F)(F)F [AZD4320] + C[C@@H](Nc1cc(F)cc(F)c1)c1cc(C(=O)N(C)C)cc2c(=O)cc(N3CCOCC3)oc12 [AZD8186] (first compound max 1 µM, 7x7, partner max 3 µM) | -0.0372 | 0.0755 | -0.0504 | 0.0067 | 0.0559 | 0.0229
15 | CN(CCO)CC[C@H](CSc1ccccc1)Nc1ccc(S(=O)(=O)NC(=O)c2ccc(N3CCC([C@@H](O)c4ccccc4-c4ccc(Cl)cc4)CC3)cc2)cc1S(=O)(=O)C(F)(F)F [AZD4320] + Cc1cc2ncnn2cc1Nc1ncc2c(n1)n(C1CCOCC1)c(=O)n2C [AZD7648] (first compound max 1 µM, 7x7, partner max 10 µM) | -0.0449 | -0.0091 | 0.0012 | 0.0238 | -0.0185 | 0.025
16 | CN(CCO)CC[C@H](CSc1ccccc1)Nc1ccc(S(=O)(=O)NC(=O)c2ccc(N3CCC([C@@H](O)c4ccccc4-c4ccc(Cl)cc4)CC3)cc2)cc1S(=O)(=O)C(F)(F)F [AZD4320] + Cn1cnc2c(F)c(Nc3ccc(Br)cc3Cl)c(C(=O)NOCCO)cc21 [Selumetinib] (first compound max 1 µM, 7x7, partner max 3 µM) | 0.0427 | 0.133 | -0.061 | -0.0039 | 0.0322 | 0.027
17 | COc1nnc2ccc(N3CCC(c4ccc(OCCN5CCN(C)C(=O)[C@H]5C)cc4)CC3)nn12 [AZD5153] + C=CCn1c(=O)c2cnc(Nc3ccc(N4CCN(C)CC4)cc3)nc2n1-c1cccc(C(C)(C)O)n1 [AZD1775] (first compound max 1 µM, partner max 1 µM) | -0.0114 | -0.0558 | -0.042 | -0.066 | -0.0756 | -0.0116
18 | COc1nnc2ccc(N3CCC(c4ccc(OCCN5CCN(C)C(=O)[C@H]5C)cc4)CC3)nn12 [AZD5153] + CC1(C)CCC(CN2CCN(c3ccc(C(=O)NS(=O)(=O)c4ccc(NCC5CCOCC5)c([N+](=O)[O-])c4)c(Oc4cnc5[nH]ccc5c4)c3)CC2)=C(c2ccc(Cl)cc2)C1 [Venetoclax] (first compound max 1 µM, 7x7, partner max 1 µM) | -0.0455 | -0.054 | -0.0861 | -0.0033 | -0.0486 | 0.0248
19 | COc1nnc2ccc(N3CCC(c4ccc(OCCN5CCN(C)C(=O)[C@H]5C)cc4)CC3)nn12 [AZD5153] + CCN(CCO)CCCOc1ccc2c(Nc3cc(CC(=O)Nc4cccc(F)c4)[nH]n3)ncnc2c1 [AZD2811] (first compound max 1 µM, 7x7, partner max 1 µM) | 0.0609 | -0.0361 | -0.0761 | -0.0471 | -0.0345 | -0.103
20 | COc1nnc2ccc(N3CCC(c4ccc(OCCN5CCN(C)C(=O)[C@H]5C)cc4)CC3)nn12 [AZD5153] + CN(CC[C@H](CSC1=CC=CC=C1)NC2=C(C=C(C=C2)S(=O)(=O)NC(=O)C3=CC=C(C=C3)N4CCC(CC4)[C@H](C5=CC=CC=C5C6=CC=C(C=C6)Cl)O)S(=O)(=O)C(F)(F)F)CCO [AZD4320] (first compound max 1 µM, 7x7, partner max 1 µM) |  |  | 0.0448 | -0.019 |  | 
21 | CC(=O)c1c(C)c2cnc(Nc3ccc(N4CCNCC4)cn3)nc2n(C2CCCC2)c1=O [Palbociclib] + CN(CC[C@H](CSC1=CC=CC=C1)NC2=C(C=C(C=C2)S(=O)(=O)NC(=O)C3=CC=C(C=C3)N4CCC(CC4)[C@H](C5=CC=CC=C5C6=CC=C(C=C6)Cl)O)S(=O)(=O)C(F)(F)F)CCO [AZD4320] (first compound max 10 µM, 7x7, partner max 1 µM) |  |  | -0.0276 | -0.0498 |  | 
22 | C[C@@H](c1ccc2nccn2c1)n1nnc2ncc(-c3cnn(C)c3)nc21 [Savolitinib] + CN(CC[C@H](CSC1=CC=CC=C1)NC2=C(C=C(C=C2)S(=O)(=O)NC(=O)C3=CC=C(C=C3)N4CCC(CC4)[C@H](C5=CC=CC=C5C6=CC=C(C=C6)Cl)O)S(=O)(=O)C(F)(F)F)CCO [AZD4320] (first compound max 1 µM, 7x7, partner max 1 µM) |  |  | -0.0518 | -0.0322 |  | 
